Reference: EP0457318B1, “Alpha-Oxopyrrolo[2,3-b]indole acetic acids, esters, amides and related analogs, a process for their preparation and their use as medicaments” (HOECHST-ROUSSEL PHARMACEUTICALS INCORPORATED, priority 1990, dated 1991)
Like-named read-outs stand apart in the source and are kept apart here.

Columns and labels:
[1] = biological target: T1, Brain AChE (Rattus norvegicus, UniProt P37136); test: In vitro inhibition of acetylcholinesterase activity in rat striatum (modified Ellman method); type: biochemical
T1 construct: corpora striata dissected free, weighed and homogenized in 19 volumes; from tissue; host or cells: rat corpora striata homogenate (male Wistar rats)
T1 sequence (P37136 32-614): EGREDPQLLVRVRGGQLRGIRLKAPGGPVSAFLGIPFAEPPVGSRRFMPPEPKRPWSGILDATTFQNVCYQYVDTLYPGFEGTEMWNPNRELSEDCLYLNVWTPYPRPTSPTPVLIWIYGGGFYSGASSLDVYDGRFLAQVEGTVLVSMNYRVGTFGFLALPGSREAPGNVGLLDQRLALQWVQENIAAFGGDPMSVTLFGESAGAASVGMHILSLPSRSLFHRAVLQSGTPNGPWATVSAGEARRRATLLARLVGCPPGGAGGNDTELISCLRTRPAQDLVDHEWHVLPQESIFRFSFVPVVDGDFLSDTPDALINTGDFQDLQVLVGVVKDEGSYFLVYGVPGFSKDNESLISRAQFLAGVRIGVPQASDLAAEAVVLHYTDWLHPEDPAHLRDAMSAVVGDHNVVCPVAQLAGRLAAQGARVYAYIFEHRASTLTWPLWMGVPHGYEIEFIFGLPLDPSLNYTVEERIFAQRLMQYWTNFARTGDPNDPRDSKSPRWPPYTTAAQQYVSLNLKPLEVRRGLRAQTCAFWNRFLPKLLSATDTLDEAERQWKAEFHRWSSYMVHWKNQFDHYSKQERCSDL
Excerpt: Cholinesterases are found throughout the body, both in the brain and in serum. However, only brain acetylcholinesterase (AChE) distribution is correlated with central cholinergic innervation. […] We have determined in vitro inhibition of acetylcholinesterase activity in rat striatum according to the method described below.
In Vitro Inhibition of Acetylcholinesterase Activity in Rat Striatum
The method described below was used in this invention for assaying anticholinesterase activity. This is a modification of the method of Ellman et al., Biochem. Pharmacol. 7, 88 (1961).
• 1. 0.05 M Phosphate buffer, pH 7.2 • (a) 6.85 g NaH2PO4·H2O/100 ml distilled H2O • (b) 13.40 g Na2HPO4·7H2O/100 ml distilled H2O • (c) add (a) to (b) until pH reaches 7.2 • (d) Dilute 1:10 • 2. Substrate in buffer • (a) 198 mg acetylthiocholine chloride (10 mM) • (b) q.s. to 100 ml with 0.05 M NaPO4, pH 7.2 (reagent 1) • 3. DTNB in buffer • (a) 19.8 mg 5,5-dithiobisnitrobenzoic acid (DTNB) (0.5 mM) • (b) q.s. to 100 ml with 0.05M NaPO4, pH 7.2 (reagent 1) • 4. A 2mM stock solution of the test drug is made up in a suitable solvent and q.s. to volume with 0.5 mM DTNB (reagent 3). Drugs are serially diluted (1:10) such that the final concentration (in cuvette) is 10^-4M and screened for activity. If active, IC50 values are determined from the inhibitory activity of subsequent concentrations.
Male Wistar rats are decapitated, brains rapidly removed, corpora striata dissected free, weighed and homogenized in 19 volumes (approximately 7 mg protein/ml) of 0.05 M phosphate buffer, pH 7.2 using a Potter-Elvehjem homogenizer. A 25 microliter aliquot of the homogenate is added to 1 ml of vehicle or various concentrations of the test drug and preincubated for 10 minutes at 37°C.
Enzyme activity is measured with the Beckman DU-50 spectrophotometer. This method can be used for IC50 determinations and for measuring kinetic constants.
Kinetics Soft-Pac Module #598273 (10) Program #6 Kindata: Source - Vis Wavelength - 412 nm Sipper - none Cuvettes - 2 ml cuvettes using auto 6-sampler Blank - 1 for each substrate concentration Interval time - 15 seconds (15 or 30 seconds for kinetics) Total time - 5 minutes (5 or 10 minutes for kinetics) Plot - yes Span - autoscale Slope - increasing Results - yes (gives slope) Factor - 1 […]
Blank values are determined for each run to control non enzymatic hydrolysis of substrate and these values are automatically substracted by the kindata program available on kinetics soft-pac module. This program also calculates the rate of absorbance change for each cuvette. […]
IC50 values are calculated from log-probit analysis.

[2] = test system: Scopolamine Induced Memory Deficit; test: Dark Avoidance Assay (reversal of scopolamine induced memory deficit); type: in vivo; settings: mice, s.c., retest after 24 hours
Experimental: In this assay mice are tested for their ability to remember an unpleasant stimulus for a period of 24 hours. A mouse is placed in a chamber that contains a dark compartment; a strong incandescent light drives it to the dark compartment, where an electric shock is administered through metal plates on the floor. The animal is removed from the testing apparatus and tested again, 24 hours later, for the ability to remember the electric shock.
If scopolamine, an anticholinergic that is known to cause memory impairment, is administered before an animal's initial exposure to the test chamber, the animal re-enters the dark compartment shortly after being placed in the test chamber 24 hours later. This effect of scopolamine is blocked by an active test compound, resulting in a greater interval before re-entry into the dark compartment.
The results for an active compound are expressed as the percent of a group of animals in which the effect of scopolamine is blocked, as manifested by an increased interval between being placed in the test chamber and re-entering the dark compartment.

[3] = rat striatum homogenate, preincubated 10 minutes at 37°C, 5 mM acetylthiocholine, pH 7.2, read-out: Inhibitory Concentration (IC50) Brain AChE

Compound `CCCCCOC(=O)C(=O)c1ccc2c(c1)C1(C)CCN(C)C1N2C` (stereo not drawn) [1,2,3,3a,8,8a-Hexahydro-α-oxo-1,3a,8-trimethyl-5-pyrrolo[2,3-b]indole acetic acid, n-pentyl ester] has an IC50 [1, 3] of 8 µM.

`CN1CCC2(C)c3cc(C(=O)C(=O)OCCc4ccccc4)ccc3N(C)C12` (stereo not drawn) [1,2,3,3a,8,8a-Hexahydro-α-oxo-1,3a,8-trimethyl-5-pyrrolo[2,3-b]indole acetic acid, phenylethyl ester] was tested, and the “% of Animals with Scopolamine Induced Memory Deficit Reversal” value (from here on “% of Animals”) ([2]; dose 0.1 mg/kg of body weight) was 29%, the “% of Animals” value ([2]; dose 0.3 mg/kg of body weight) was 36% and the “% of Animals” value ([2]; dose 1.0 mg/kg of body weight) was 20%. It also gave an IC50 [1] of 9.1 µM.

With `CCCCOC(=O)C(=O)c1ccc2c(c1)C1(C)CCN(C)C1N2C` (stereo not drawn) [1,2,3,3a,8,8a-Hexahydro-α-oxo-1,3a,8-trimethyl-5-pyrrolo[2,3-b]indole acetic acid, n-butyl ester] the IC50 [1, 3] was 5.7 µM.

`Nc1c2c(nc3ccccc13)CCCC2` [Tacrine, reference compound] was tested, and the “% of Animals” value ([2]; dose 0.63 mg/kg of body weight) was 13%.

In the case of `CC[C@@H]1C(=O)OC[C@@H]1Cc1cncn1C` [Pilocarpine, reference compound], the “% of Animals” value ([2]; dose 5.0 mg/kg of body weight) is reported as 13%.

Compound `CN1CCC2(C)c3cc(C(=O)C(=O)OCc4ccccc4)ccc3N(C)C12` (stereo not drawn) [1,2,3,3a,8,8a-Hexahydro-α-oxo-1,3a,8-trimethyl-5-pyrrolo[2,3-b]indole acetic acid, phenylmethyl ester] has an IC50 [1, 3] of 4.4 µM.
